≈ marks a conversion by molar mass, not a printed value.
Key:
Type in all cases: cell-based
[1] = system: Punta Toro A hemorrhagic fever virus type Adames; assay: Punta Toro A virus cytoprotection, inhibition of CPE; details: LLC-MK2, read-out: CPE EC50
[2] = system: Punta Toro A hemorrhagic fever virus type Adames; assay: Punta Toro A virus time-of-addition cytoprotection, NR method
Method: (§1) The second cytoprotection assay protocol, employed to validate the CPE results, was as follows: in the neutral red dye uptake version of the antiviral test protocol described immediately above, the same 96-well microplates were utilized after the CPE had been read. Neutral red dye was then added to the medium: cells not damaged by virus take up a greater amount of dye, which can be read on a computerized micro plate autoreader (the method is described in detail by McManus: Appl. Environ. Microbiol. 1976, 31, 35-38).
(§2) Punta Toro A hemorrhagic fever virus type Adames was obtained from the Center for Disease Control (CDC). The test cell line consisted of adult Rhesus monkey kidney cells (LLC-MK2).
The two protocols used to determine the cytoprotection properties of the humate materials were as described in Example 20, except that drugs were added at specific times to the test wells containing virus.

[3] = system: Punta Toro A hemorrhagic fever virus type Adames; assay: Punta Toro A virus time-of-addition cytoprotection, CPE method
[4] = system: Pichinde hemorrhagic fever virus 4763
[5] = system: Pichinde hemorrhagic fever virus 4763; assay: microbe, parasite or virus in culture; details: BSC-1, read-out: CPE EC50
[6] = system: Punta Toro A hemorrhagic fever virus type Adames; assay: Punta Toro A virus cytoprotection, neutral red dye uptake; details: Punta Toro A virus in LLC-MK2 cells
Method: as §1, §2
The two protocols used to determine the cytoprotection properties of the humate materials were as described in Example 20.

NC(=O)c1ncn([C@@H]2O[C@H](CO)[C@@H](O)[C@H]2O)n1 [Ribavirin]
EC50 [1]: 5 µg/mL (≈ 20.5 µM)
EC50 ([2]; 0 h, read-out: EC50, NR method, time of addition 0 hours): 3 µg/mL (≈ 12.3 µM)
EC50 ([2]; 1 h, read-out: EC50, NR method, time of addition 1 hours): 5 µg/mL (≈ 20.5 µM)
EC50 ([2]; 1 h, read-out: EC50, NR method, time of addition −1 hours): 6 µg/mL (≈ 24.6 µM)
EC50 ([2]; 2 h, read-out: EC50, NR method, time of addition 2 hours): 5 µg/mL (≈ 20.5 µM)
EC50 ([2]; 4 h, read-out: EC50, NR method, time of addition 4 hours): 9 µg/mL (≈ 36.9 µM)
EC50 ([2]; 6 h, read-out: EC50, NR method, time of addition 6 hours): 8 µg/mL (≈ 32.8 µM)
EC50 ([2]; 8 h, read-out: EC50, NR method, time of addition 8 hours): 10 µg/mL (≈ 40.9 µM)
EC50 ([2]; 12 h, read-out: EC50, NR method, time of addition 12 hours): 12 µg/mL (≈ 49.1 µM)
EC50 ([2]; 24 h, read-out: EC50, NR method, time of addition 24 hours): 35 µg/mL (≈ 143 µM)
EC50 ([3]; 0 h, read-out: EC50, CPE method, time of addition 0 hours): 4 µg/mL (≈ 16.4 µM)
EC50 ([3]; 1 h, read-out: EC50, CPE method, time of addition 1 hours): 4 µg/mL (≈ 16.4 µM)
EC50 ([3]; 1 h, read-out: EC50, CPE method, time of addition −1 hours): 10 µg/mL (≈ 40.9 µM)
EC50 ([3]; 2 h, read-out: EC50, CPE method, time of addition 2 hours): 8 µg/mL (≈ 32.8 µM)
EC50 ([3]; 4 h, read-out: EC50, CPE method, time of addition 4 hours): 4 µg/mL (≈ 16.4 µM)
EC50 ([3]; 6 h, read-out: EC50, CPE method, time of addition 6 hours): 10 µg/mL (≈ 40.9 µM)
EC50 ([3]; 8 h, read-out: EC50, CPE method, time of addition 8 hours): 8 µg/mL (≈ 32.8 µM)
EC50 ([3]; 12 h, read-out: EC50, CPE method, time of addition 12 hours): 8 µg/mL (≈ 32.8 µM)
EC50 ([3]; 24 h, read-out: EC50, CPE method, time of addition 24 hours): 2 µg/mL (≈ 8.19 µM)
NR EC99 [4]: <1 micrograms per milliliter
EC50 [5]: 0.3 µg/mL (≈ 1.23 µM)
NR EC99 [6]: 5 micrograms per milliliter
